Earlier results in patent US8283517B2, “Transgenic mouse models of Aβ overexpression” (Probiodrug AG, priority 2007, dated 2012).

Tests used:
[1] = tested on: QC; details: QC catalyzed conversion of Glu-βNA, pH-dependence data
[2] = not given; remark: listed apart in the source

SMILES | kinetically determined pKa-value [1] | pKa-value of the α-amino group, determined by titration | pKa-value for the α-amino moiety [2] | pKa-value for the γ-carboxylic moiety ([2]; printed as 7-carboxylic)
N[C@@H](CCC(=O)O)C(=O)Nc1ccc2ccccc2c1 [Glu-βNA] | 7.55+/−0.02 | 7.57±0.05 |  | 
N[C@@H](CCC(=O)O)C(=O)O [Glutamate] |  |  | ~7.5 | about 4.2
